# Data reported in the supplement of paper PMC4932681.
# Counter-ions that a name gives are not always drawn.
# Tests used:
# [1] = system: BT-474 Tam1; experiment: drug sensitivity score (DSS) (DSS (dimensionless)); higher = more sensitive; extreme values may be limits of the assay; settings: 4-OH-tamoxifen in medium 1 µM; 72 h
# Method: (§1)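 FIMM FO2B library drugs were tested at 5 concentrations (10,000-fold range) for 72 h, with CellTiter-Glo viability normalised to DMSO and benzethonium chloride controls. The Drug Sensitivity Score (DSS) is computed from the fitted logistic dose-response curve (area-based; 0 = inactive). Resistant lines and the 'in 1µM tamoxifen' arms were tested in 1 µM 4-OH-tamoxifen.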
# [2] = system: BT-474 Tam2; experiment: as above; settings: 4-OH-tamoxifen in medium 1 µM; 72 h
# Method: as §1
# [3] = system: BT-474; experiment: as above; settings: 72 h
# Method: as §1
# [4] = system: MCF-7 Tam1; experiment: as above; settings: 4-OH-tamoxifen in medium 1 µM; 72 h
# Method: as §1
# [5] = system: MCF-7; experiment: as above; settings: 72 h
# Method: as §1
# [6] = system: T-47D Tam1; experiment: as above; settings: 4-OH-tamoxifen in medium 1 µM; 72 h
# Method: as §1
# [7] = system: T-47D Tam2; experiment: as above; settings: 4-OH-tamoxifen in medium 1 µM; 72 h
# Method: as §1
# [8] = system: T-47D; experiment: as above; settings: 72 h
# Method: as §1
# [9] = system: ZR-75-1 Tam1; experiment: as above; settings: 4-OH-tamoxifen in medium 1 µM; 72 h
# Method: as §1
# [10] = system: ZR-75-1 Tam2; experiment: as above; settings: 4-OH-tamoxifen in medium 1 µM; 72 h
# Method: as §1
# [11] = system: ZR-75-1; experiment: as above; settings: 72 h
# Method: as §1
# [12] = system: BT-474 Tam1; experiment: relative IC50 (midpoint of fitted logistic curve, plateau may be below 50% inhibition; CellTiter-Glo viability); higher = less potent; settings: 4-OH-tamoxifen in medium 1 µM; 72 h
# Method in brief: (§2)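 Breast cancer cell lines and their resistant derivatives were seeded into 384-well plates holding FO2Baq library drugs at five concentrations spanning a 10 000-fold range. Resistant lines were in medium with 1 μM of the selecting drug. Cells were incubated 72 h at 37 °C, and CellTiter-Glo viability was read on a PHERAstar and normalised to vehicle-only and positive controls. Drug sensitivity score, relative IC50 (curve midpoint) and top-dose inhibition came from logistic dose–response fits (Breeze pipeline).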
# [13] = system: BT-474 Tam2; experiment: as above; settings: 4-OH-tamoxifen in medium 1 µM; 72 h
# Method in brief: as §2
# [14] = system: BT-474; experiment: as above; settings: 72 h
# Method in brief: as §2
# [15] = system: MCF-7 Tam1; experiment: as above; settings: 4-OH-tamoxifen in medium 1 µM; 72 h
# Method in brief: as §2
# [16] = system: MCF-7; experiment: as above; settings: 72 h
# Method in brief: as §2
# [17] = system: T-47D Tam1; experiment: as above; settings: 4-OH-tamoxifen in medium 1 µM; 72 h
# Method in brief: as §2
# [18] = system: T-47D; experiment: as above; settings: 72 h
# Method in brief: as §2
# [19] = system: ZR-75-1 Tam1; experiment: as above; settings: 4-OH-tamoxifen in medium 1 µM; 72 h
# Method in brief: as §2
# [20] = system: ZR-75-1 Tam2; experiment: as above; settings: 4-OH-tamoxifen in medium 1 µM; 72 h
# Method in brief: as §2
# [21] = system: ZR-75-1; experiment: as above; settings: 72 h
# Method in brief: as §2
# [22] = system: T-47D Tam2; experiment: as above; settings: 4-OH-tamoxifen in medium 1 µM; 72 h
# Method in brief: as §2
SMILES,drug sensitivity score [1],drug sensitivity score [2],drug sensitivity score ([3]; 4-OH-tamoxifen in medium 0 µM),drug sensitivity score ([3]; 4-OH-tamoxifen in medium 1 µM),drug sensitivity score [4],drug sensitivity score ([5]; 4-OH-tamoxifen in medium 0 µM),drug sensitivity score ([5]; 4-OH-tamoxifen in medium 1 µM),drug sensitivity score [6],drug sensitivity score [7],drug sensitivity score ([8]; 4-OH-tamoxifen in medium 0 µM),drug sensitivity score ([8]; 4-OH-tamoxifen in medium 1 µM),drug sensitivity score [9],drug sensitivity score [10],drug sensitivity score ([11]; 4-OH-tamoxifen in medium 0 µM),drug sensitivity score ([11]; 4-OH-tamoxifen in medium 1 µM),relative IC50 [12],relative IC50 [13],relative IC50 ([14]; 4-OH-tamoxifen in medium 0 µM),relative IC50 ([14]; 4-OH-tamoxifen in medium 1 µM),relative IC50 [15],relative IC50 ([16]; 4-OH-tamoxifen in medium 0 µM),relative IC50 ([16]; 4-OH-tamoxifen in medium 1 µM),relative IC50 [17],relative IC50 ([18]; 4-OH-tamoxifen in medium 0 µM),relative IC50 ([18]; 4-OH-tamoxifen in medium 1 µM),relative IC50 [19],relative IC50 [20],relative IC50 ([21]; 4-OH-tamoxifen in medium 0 µM),relative IC50 ([21]; 4-OH-tamoxifen in medium 1 µM),relative IC50 [22]
CC(C)C[C@H](NC(=O)[C@@H](COC(C)(C)C)NC(=O)[C@H](Cc1ccc(O)cc1)NC(=O)[C@H](CO)NC(=O)[C@H](Cc1c[nH]c2ccccc12)NC(=O)[C@H](Cc1cnc[nH]1)NC(=O)[C@@H]1CCC(=O)N1)C(=O)N[C@@H](CCCNC(=N)N)C(=O)N1CCC[C@H]1C(=O)NNC(N)=O [Goserelin acetate],0,0,0,0,0,0,0,0,0.105,0,0,0,0,0,0,> 10 µM,> 10 µM,> 10 µM,> 10 µM,> 10 µM,> 10 µM,> 10 µM,> 10 µM,> 10 µM,> 10 µM,> 10 µM,> 10 µM,> 10 µM,> 10 µM,
CN(Cc1cnc2nc(N)nc(N)c2n1)c1ccc(C(=O)N[C@@H](CCC(=O)O)C(=O)O)cc1 [Methotrexate],0,0,0,0,0,0.338,3.04,0,0,0,0,1.07,0.0419,6.76,0,> 10 µM,> 10 µM,> 10 µM,> 10 µM,,,,> 10 µM,> 10 µM,> 10 µM,,,0.197 µM,> 10 µM,> 10 µM
CN(N=O)C(=O)N[C@@H](C=O)[C@@H](O)[C@H](O)[C@H](O)CO [Streptozocin],0,0,0,0,0,0,0,0,0,0,0,0,0,0,0,> 10 µM,> 10 µM,> 10 µM,> 10 µM,> 10 µM,> 10 µM,> 10 µM,> 10 µM,> 10 µM,> 10 µM,> 10 µM,> 10 µM,> 10 µM,> 10 µM,
CC(=O)Nc1ccc(C(=O)Nc2ccccc2N)cc1 [Tacedinaline (CI-994)],0,0,0,0,0,0,0,0,0.132,0,0.0059,0,0,0,0,> 1 µM,> 1 µM,> 1 µM,> 1 µM,> 1 µM,> 1 µM,> 1 µM,> 1 µM,> 1 µM,,> 1 µM,> 1 µM,> 1 µM,> 1 µM,
CC(C)C(=O)Nc1ccc([N+](=O)[O-])c(C(F)(F)F)c1 [Flutamide],0,0,0,0,0,0,0.814,0,0.0387,0,0,0,0,0,0,> 10 µM,> 10 µM,> 10 µM,> 10 µM,> 10 µM,> 10 µM,,> 10 µM,> 10 µM,> 10 µM,> 10 µM,> 10 µM,> 10 µM,> 10 µM,
Cc1ccc(C(=O)Nc2ccc(CN3CCN(C)CC3)c(C(F)(F)F)c2)cc1C#Cc1cnc2cccnn12,1.26,0,0,1.07,0.248,0,0.178,11.6,1.72,0.62,1.21,0.0086,0.0834,0,0.047,0.406 µM,,> 1 µM,0.458 µM,,,,0.0432 µM,,0.391 µM,,,> 1 µM,,0.337 µM
COc1cc2ncnc(Nc3ccc(F)c(Cl)c3)c2cc1OCCCN1CCOCC1 [Gefitinib],24.9,20.3,9.4,22.7,0,2.5,1.2,0,4.57,0.0062,0,1.51,1.16,0.0359,1.45,0.0654 µM,0.176 µM,1.03 µM,0.115 µM,,,4.19 µM,> 10 µM,,> 10 µM,,,,,1.41 µM
CC/C(=C(\c1ccccc1)c1ccc(OCCN(C)C)cc1)c1ccccc1 [Tamoxifen citrate],6.73,4.61,1.53,5.05,0.973,0,3.99,0.576,2.54,0,0,0.0116,0.865,0,1.69,2.39 µM,3.61 µM,3.47 µM,3.2 µM,,,3.48 µM,,> 10 µM,,,,> 10 µM,3.54 µM,3.29 µM
